In US20220226299A1 (NIPPON CHEMIPHAR CO., LTD., priority 2019, published 2022):
Counter-ions that a name gives are not always drawn.

These molecules were tested against T1, human Cav3.2 channels (Homo sapiens, UniProt O95180) (assay: T-type calcium blocking action: intracellular calcium (Fluo-4 AM fluorescence) in HEK293 cells steadily expressing human Cav3.2 channels). Settings: HEK293 cells expressing human Cav3.2; KCl-stimulated calcium influx, Fluo-4 fluorescence; Tables 1 to 3.
T1 construct: human Cav3.2 channel ORF (Open Reading Frame) gene; expressed in transfected cells; host or cells: HEK293 cells (ATCC No. CRL-1573), pcDNA3.1(+) plasmid
T1 sequence (O95180 whole entry): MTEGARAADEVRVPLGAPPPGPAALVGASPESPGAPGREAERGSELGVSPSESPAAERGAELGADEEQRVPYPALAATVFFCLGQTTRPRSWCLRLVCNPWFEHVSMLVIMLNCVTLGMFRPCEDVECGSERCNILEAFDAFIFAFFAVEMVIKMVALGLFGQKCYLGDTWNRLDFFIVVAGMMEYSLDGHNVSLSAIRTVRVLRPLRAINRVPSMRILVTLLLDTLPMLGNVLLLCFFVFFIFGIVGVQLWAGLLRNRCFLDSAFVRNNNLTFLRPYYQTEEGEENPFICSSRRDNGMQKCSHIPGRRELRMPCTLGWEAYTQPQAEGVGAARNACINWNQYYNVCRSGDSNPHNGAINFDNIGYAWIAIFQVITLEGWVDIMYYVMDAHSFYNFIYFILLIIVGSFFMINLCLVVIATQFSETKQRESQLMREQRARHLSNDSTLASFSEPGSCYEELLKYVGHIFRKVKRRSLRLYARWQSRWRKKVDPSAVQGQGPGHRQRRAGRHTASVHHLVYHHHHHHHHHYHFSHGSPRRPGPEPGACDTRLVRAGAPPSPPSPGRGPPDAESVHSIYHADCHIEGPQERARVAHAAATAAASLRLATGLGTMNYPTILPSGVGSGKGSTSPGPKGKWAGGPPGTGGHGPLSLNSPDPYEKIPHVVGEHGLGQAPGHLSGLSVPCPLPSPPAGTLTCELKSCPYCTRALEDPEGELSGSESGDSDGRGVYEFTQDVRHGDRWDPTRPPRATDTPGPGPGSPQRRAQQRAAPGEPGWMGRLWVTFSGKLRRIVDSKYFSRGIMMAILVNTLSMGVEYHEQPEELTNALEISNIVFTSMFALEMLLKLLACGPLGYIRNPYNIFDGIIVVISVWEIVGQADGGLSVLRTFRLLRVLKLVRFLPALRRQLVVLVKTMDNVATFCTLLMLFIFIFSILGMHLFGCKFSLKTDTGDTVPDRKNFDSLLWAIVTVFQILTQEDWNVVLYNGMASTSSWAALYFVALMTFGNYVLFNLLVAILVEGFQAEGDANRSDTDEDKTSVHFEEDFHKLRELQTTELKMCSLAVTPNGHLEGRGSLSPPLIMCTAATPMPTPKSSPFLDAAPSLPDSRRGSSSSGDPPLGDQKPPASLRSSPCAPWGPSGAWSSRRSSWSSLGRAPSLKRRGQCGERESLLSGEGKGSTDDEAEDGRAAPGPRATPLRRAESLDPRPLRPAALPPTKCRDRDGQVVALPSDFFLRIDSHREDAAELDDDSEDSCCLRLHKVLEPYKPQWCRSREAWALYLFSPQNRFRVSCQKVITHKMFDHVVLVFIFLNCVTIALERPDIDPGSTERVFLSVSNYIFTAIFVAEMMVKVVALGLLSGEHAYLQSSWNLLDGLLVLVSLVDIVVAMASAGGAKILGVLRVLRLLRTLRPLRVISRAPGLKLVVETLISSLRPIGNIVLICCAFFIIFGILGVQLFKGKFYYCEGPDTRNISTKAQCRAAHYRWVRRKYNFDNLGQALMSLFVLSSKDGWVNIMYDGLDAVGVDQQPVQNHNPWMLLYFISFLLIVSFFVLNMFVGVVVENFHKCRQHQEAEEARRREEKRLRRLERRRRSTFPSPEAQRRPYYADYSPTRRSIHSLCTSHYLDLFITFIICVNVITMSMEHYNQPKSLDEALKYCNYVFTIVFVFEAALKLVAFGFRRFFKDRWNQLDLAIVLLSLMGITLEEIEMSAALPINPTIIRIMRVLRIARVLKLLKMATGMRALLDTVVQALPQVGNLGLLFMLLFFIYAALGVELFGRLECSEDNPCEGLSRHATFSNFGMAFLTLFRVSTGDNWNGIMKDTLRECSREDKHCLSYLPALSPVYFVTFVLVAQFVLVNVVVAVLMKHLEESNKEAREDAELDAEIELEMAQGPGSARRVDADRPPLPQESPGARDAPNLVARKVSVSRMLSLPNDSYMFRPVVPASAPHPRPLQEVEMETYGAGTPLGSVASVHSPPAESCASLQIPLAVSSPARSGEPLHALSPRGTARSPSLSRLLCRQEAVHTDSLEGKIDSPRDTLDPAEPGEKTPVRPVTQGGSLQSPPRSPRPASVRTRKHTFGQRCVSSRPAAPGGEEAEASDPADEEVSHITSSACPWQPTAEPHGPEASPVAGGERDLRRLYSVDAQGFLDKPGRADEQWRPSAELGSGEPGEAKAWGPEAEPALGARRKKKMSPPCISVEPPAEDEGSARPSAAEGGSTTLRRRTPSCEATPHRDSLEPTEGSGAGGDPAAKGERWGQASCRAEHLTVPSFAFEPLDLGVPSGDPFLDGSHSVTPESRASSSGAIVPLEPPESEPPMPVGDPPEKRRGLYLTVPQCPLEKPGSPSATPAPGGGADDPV
Format: cell-based
Text: T-Type Calcium Blocking Action
(1) Construction of Cells Steadily Expressing Human Cav3.2 Channels
A sequence obtained by adding HindIII site and a kozak sequence (GCCACC) to the 5′-side of human Cav3.2 channel ORF (Open Reading Frame) gene and adding a KpnI site to the 3′-side of the gene, was incorporated into pcDNA3.1(+) (Thermo Fisher Scientific, #V790-20), and the plasmid was introduced into HEK293 cells (ATCC No. CRL-1573) according to the protocol of FuGENE (registered trademark) HD Transfection Reagent (Promega, #E2311).
(2) Method for Measuring Intracellular Calcium Concentration
The cells steadily expressing human Cav3.2 channels produced by testing method (1) were seeded on a 96-well plate (Dulbecco's modified Eagle medium (DMEM) medium containing 10% fetal bovine serum (FBS) was used as a medium). The cells were seeded and cultured for 48 hours under conditions of 37° C. and 5% CO2. Thereafter, the cells were washed with buffer A in order to remove the medium. Each well was treated with 80 μL of a fluorescent dye solution produced by mixing 22 μg of a fluorescent calcium indicator, Fluo-4 AM (Dojindo Laboratories, #F311), 20 μL of DMSO, 1 μL of 10% Pluronic F-127 (Thermo Fisher Scientific, #P6866), and 4 mL of buffer A. The cells were allowed to stand for 45 minutes at room temperature under light-shielded conditions, and then washed with buffer B in order to completely replace the solution. 70 μL of DMSO having the same concentration as that of a test compound as a negative control and 70 μL of a mixture containing 1 μM of a known blocker RQ-00311651 and the test compound as a positive control were each added to each well in a form of being contained in the buffer B. The test compound was dissolved in 100% DMSO and added at a final concentration of 0.1%. Then, the cells were further allowed to stand at room temperature under light-shielded conditions for 15 minutes and placed in a microplate reader EnVision (PerkinElmer). Background fluorescence was measured in each well, and then a 5 μg/mL grammicidin solution was added to buffer B at 10 μL/well. After 90 seconds, baseline fluorescence was measured. Thereafter, 83.8 mM KCl was added to buffer B at 20 μL/well, and an increase in fluorescence caused by calcium influx generated by the stimulus was measured for 10 seconds. A blocking percentage was calculated from a maximum fluorescence increase value from a baseline, a logarithmic value of a compound concentration and blockery activity were plotted, and thereby an IC50 value was calculated. In the measurement, fluorescence at 510 nm that was emitted when the cells were irradiated with excitation light at 485 nm was observed.
Buffer A: 140 mM NaCl, 5 mM KCl, 1 mM MgCl2, 0.5 mM CaCl2, 10 mM Glucose, 10 mM HEPES, pH 7.3
Buffer B: 137.9 mM Choline-Cl, 4.1 mM KCl, 1 mM MgCl2, 0.5 mM CaCl2, 10 mM Glucose, 10 mM HEPES, pH 7.3

`O=C(Cc1ccc(N2CC3(COC3)C2)cc1)N[C@@H]1CCN(c2cncc(C(F)(F)F)c2)C1` [Example 46, (R)-2-(4-(2-oxa-6-azaspiro[3.3]heptan-6-yl)phenyl)-N-(1-(5-(trifluoromethyl)pyridin-3-yl)pyrrolidin-3-yl) acetamide] and `O=C(Cc1ccc(N2CCC(F)(F)C2)cc1)N[C@@H]1CCN(c2ccc(C(F)(F)F)nc2)C1` [Example 84, (R)-2-(4-(3,3-difluoropyrrolidin-1-yl)phenyl)-N-(1-(6-(trifluoromethyl)pyridin-3-yl)pyrrolidin-3-yl)acetamide] are within 1.5-fold of each other in IC50: 260 nM for the first, 180 nM for the second.

Going from `O=C(N[C@@H]1CCN(c2nc(C(F)(F)F)cs2)C1)[C@H]1C[C@@H]1c1nc2ccccc2o1` [Example 47, (1S,2S)-2-(benzo[d]oxazol-2-yl)-N—((R)-1-(4-(trifluoromethyl)thiazol-2-yl)pyrrolidin-3-yl)cyclopropane-1-carboxyamide] to `O=C(N[C@@H]1CCN(c2nc(C(F)(F)F)cs2)C1)[C@H]1C[C@@H]1c1nc2ccccc2[nH]1` [Example 64, (1S,2S)-2-(1H-benzo[d]imidazol-2-yl)-N—((R)-1-(4-(trifluoromethyl)thiazol-2-yl)pyrrolidin-3-yl)cyclopropane-1-carboxyamide], the IC50 falls from 350 nM to 37 nM (9.5-fold).

Going from `O=C(N[C@@H]1CCN(c2ccc(C(F)(F)F)nc2)C1)[C@H]1C[C@@H]1c1nc2ccc(F)cc2o1` [Example 48, (1S,2S)-2-(6-fluorobenzo[d]oxazol-2-yl)-N—((R)-1-(6-(trifluoromethyl)pyridin-3-yl)pyrrolidin-3-yl)cyclopropane-1-carboxyamide] to `O=C(N[C@@H]1CCN(c2ccc(C(F)(F)F)nc2)C1)[C@H]1C[C@@H]1c1nc2cc(F)ccc2o1` [Example 51], the IC50 falls from 240 nM to 120 nM (2-fold). The second is the more potent here.

First: O=C(N[C@@H]1CCN(c2cncc(C(F)(F)F)c2)C1)[C@H]1C[C@@H]1c1nc2cc(F)ccc2o1 [Example 49, (1S,2S)-2-(5-fluorobenzo[d]oxazol-2-yl)-N—((R)-1-(5-(trifluoromethyl)pyridin-3-yl)pyrrolidin-3-yl)cyclopropane-1-carboxyamide]
Second: O=C(N[C@@H]1CCN(c2cncc(C(F)(F)F)c2)C1)[C@@H]1C[C@H]1c1nc2ccccc2o1 [Example 50, (1R,2R)-2-(benzo[d]oxazol-2-yl)-N—((R)-1-(5-(trifluoromethyl)pyridin-3-yl)pyrrolidin-3-yl)cyclopropane-1-carboxyamide]
The IC50 of the first is 96-fold lower: 7.1 nM for the first, 680 nM for the second.

Compared with `O=C(N[C@@H]1CCN(c2ccc(C(F)(F)F)nc2)C1)[C@H]1C[C@@H]1c1nc2ccccc2[nH]1` [Example 54, (1S,2S)-2-(1H-benzo[d]imidazol-2-yl)-N—((R)-1-(6-(trifluoromethyl)pyridin-3-yl)pyrrolidin-3-yl)cyclopropane-1-carboxyamide], `O=C(N[C@@H]1CCN(c2cnc(C(F)(F)F)nc2)C1)[C@H]1C[C@@H]1c1nc2ccccc2[nH]1` [Example 70, (1S,2S)-2-(1H-benzo[d]imidazol-2-yl)-N—((R)-1-(2-(trifluoromethyl)pyrimidin-5-yl)pyrrolidin-3-yl)cyclopropane-1-carboxyamide] is 2.4-fold higher in IC50: 87 nM for the first, 210 nM for the second.

Going from `O=C(N[C@@H]1CCCN(c2ccc(C(F)(F)F)cc2)C1)[C@H]1C[C@@H]1c1nc2ccccc2[nH]1` [Example 65, (1S,2S)-2-(1H-benzo[d]imidazol-2-yl)-N—((R)-1-(4-(trifluoromethyl)phenyl)piperidin-3-yl)cyclopropane-1-carboxyamide] to `O=C(N[C@@H]1CCN(c2cncc(C(F)(F)F)c2)C1)[C@H]1C[C@@H]1c1nc2ccccc2[nH]1` [Example 71, (1S,2S)-2-(1H-benzo[d]imidazol-2-yl)-N—((R)-1-(5-(trifluoromethyl)pyridin-3-yl)pyrrolidin-3-yl)cyclopropane-1-carboxyamide], the IC50 falls from 8900 nM to 7.9 nM (1100-fold). The second is the more potent here.

First: CC(C)(C)c1csc(N2CC[C@@H](NC(=O)[C@H]3C[C@@H]3c3nc4ccccc4[nH]3)C2)n1 [Example 68, (1S,2S)-2-(1H-benzo[d]imidazol-2-yl)-N—((R)-1-(4-(tert-butyl)thiazol-2-yl)pyrrolidin-3-yl)cyclopropane-1-carboxyamide]
Second: O=C(N[C@@H]1CCN(c2nc3ccc(F)cc3s2)C1)[C@H]1C[C@@H]1c1nc2ccccc2[nH]1 [Example 72, (1S,2S)-2-(1H-benzo[d]imidazol-2-yl)-N—((R)-1-(6-fluorobenzo[d]thiazol-2-yl)pyrrolidin-3-yl)cyclopropane-1-carboxyamide]
The IC50 of the first is 2.8-fold lower: 75 nM for the first, 210 nM for the second. The first is the more potent here.

Going from `O=C(N[C@@H]1CCN(c2ccc(C(F)(F)F)nc2)C1)[C@H]1C[C@@H]1c1nc2ccccc2n1C1CC1` [Example 73, (1S,2S)-2-(1-cyclopropyl-1H-benzo[d]imidazol-2-yl)-N—((R)-1-(6-(trifluoromethyl)pyridin-3-yl)pyrrolidin-3-yl)cyclopropane-1-carboxyamide] to `O=C(N[C@@H]1CCN(c2cccc(C(F)(F)F)c2)C1)[C@H]1C[C@@H]1c1nc2ccccc2n1C1CC1` [Example 75, (1S,2S)-2-(1-cyclopropyl-1H-benzo[d]imidazol-2-yl)-N—((R)-1-(3-(trifluoromethyl)phenyl)pyrrolidin-3-yl)cyclopropane-1-carboxyamide], the IC50 falls from 1000 nM to 310 nM (3.2-fold). The second is the more potent here.

First: O=C(N[C@@H]1CCN(c2ccc3cc(F)ccc3n2)C1)[C@H]1C[C@@H]1c1nc2ccccc2[nH]1 [Example 74, (1S,2S)-2-(1H-benzo[d]imidazol-2-yl)-N—((R)-1-(6-fluoroquinolin-2-yl)pyrrolidin-3-yl)cyclopropane-1-carboxyamide]
Second: O=C(N[C@@H]1CCN(c2cncc(Br)c2)C1)[C@H]1C[C@@H]1c1nc2ccccc2[nH]1 [Example 76, (1S,2S)-2-(1H-benzo[d]imidazol-2-yl)-N—((R)-1-(5-bromopyridin-3-yl)pyrrolidin-3-yl)cyclopropane-1-carboxyamide]
The IC50 of the first is 1.9-fold higher: 130 nM for the first, 67 nM for the second.

`O=C(Cc1ccc2ncccc2c1)N[C@@H]1CCN(c2cncc(C(F)(F)F)c2)C1` [Example 77, (R)-2-(quinolin-6-yl)-N-(1-(5-(trifluoromethyl)pyridin-3-yl)pyrrolidin-3-yl)acetamide] and `O=C(Cc1ccc2cccnc2c1)N[C@@H]1CCN(c2cncc(C(F)(F)F)c2)C1` [Example 79, (R)-2-(quinolin-7-yl)-N-(1-(5-(trifluoromethyl)pyridin-3-yl)pyrrolidin-3-yl)acetamide hydrochloride] are within 1.5-fold of each other in IC50: 200 nM for the first, 150 nM for the second.

First: O=C(Cc1c[nH]c2ccccc12)N[C@@H]1CCN(c2cncc(C(F)(F)F)c2)C1 [Example 78, (R)-2-(1H-indol-3-yl)-N-(1-(5-(trifluoromethyl)pyridin-3-yl)pyrrolidin-3-yl)acetamide]
Second: O=C(Cc1ccc(C(F)(F)F)nc1)N[C@@H]1CCN(c2cncc(C(F)(F)F)c2)C1 [Example 82, (R)-2-(6-(trifluoromethyl)pyridin-3-yl)-N-(1-(5-(trifluoromethyl)pyridin-3-yl)pyrrolidin-3-yl)acetamide]
The IC50 of the first is 2.8-fold lower: 270 nM for the first, 750 nM for the second. The first is the more potent here.

Going from `O=C(Cc1ccc(C2CC2)cc1)N[C@@H]1CCN(c2nc(C(F)(F)F)co2)C1` [Example 80, (R)-2-(4-cyclopropylphenyl)-N-(1-(4-(trifluoromethyl)oxazol-2-yl)pyrrolidin-3-yl)acetamide] to `O=C(Cc1ccc2cc[nH]c2c1)N[C@@H]1CCN(c2ccc(C(F)(F)F)nc2)C1` [Example 85, (R)-2-(1H-indol-6-yl)-N-(1-(6-(trifluoromethyl)pyridin-3-yl)pyrrolidin-3-yl)acetamide], the IC50 falls from 720 nM to 110 nM (6.5-fold).

First: Cn1nc(CC(=O)N[C@@H]2CCN(c3cncc(C(F)(F)F)c3)C2)cc1C(F)(F)F [Example 81, (R)-2-(1-methyl-5-(trifluoromethyl)-1H-pyrazol-3-yl)-N-(1-(5-(trifluoromethyl)pyridin-3-yl)pyrrolidin-3-yl) acetamide]
Second: [2H]C([2H])(C(=O)N[C@@H]1CCN(c2cncc(C(F)(F)F)c2)C1)c1ccc(C(F)(F)F)cc1 [Example 83, (R)-2-(4-(trifluoromethyl)phenyl)-N-(1-(5-(trifluoromethyl)pyridin-3-yl)pyrrolidin-3-yl)acetamide-2,2-d2]
The IC50 of the first is 6.7-fold higher: 550 nM for the first, 82 nM for the second.
